One test has as its target HIV-1 fusion (gp160 induced cell-cell fusion; HeLa P4 cell line expressing CCR5 and CD4 / CHO-Tat10 cell line) (Homo sapiens, UniProt P51681). Briefly: gp160 induced cell-cell fusion assay. As to conditions: HeLa P4 / CHO-Tat10 cells, read-out: IC50. In kind it is cell-based. From the text: Biol., 60, 147-52 (1996); and/or by using the intracellular calcium mobilisation assays as described by the same authors, and/or inhibiting cell fusion following procedures disclosed in Bradley et al., J Biomol Screen 9, 516-24 (2004).
The gp160 induced cell-cell fusion assay uses a HeLa P4 cell line and a CHO-Tat10 cell line.
The HeLa P4 cell line expresses CCR5 and CD4 and has been transfected with HIV-1 LTR-β-Galactosidase. The media for this cell line is Dulbecco modified eagle's medium (D-MEM) (without L-glutamine) containing 10% foetal calf serum (FCS), 2 mM L-glutamine, penicillin/streptomycin (Pen/Strep; 100 U/mL penicillin+[…] streptomycin), and 1 μg/ml puromycin.
The CHO cell line is a Tat (transcriptional trans activator)-expressing clone from a CHO JRR17.1 cell line that has been transfected with pTat puro plasmid. The media for this cell line is rich medium for mammalian cell culture originally developed at Roswell Park Memorial Institute RPMI1640 (without L-glutamine) containing 10% FCS, 2 mM L-glutamine, 0.5 mg/ml Hygromycin B and 12 µg/ml puromycin. The CHO JRR17.1 line expresses gp160 (JRFL) and is a clone that has been selected for its ability to fuse with a CCR5/CD4 expressing cell line.
Upon cell fusion, Tat present in the CHO cell is able to transactivate the HIV-1 long terminal repeat (LTR) present in the HeLa cell leading to the expression of the β-Galactosidase enzyme. This expression is then measured using a Fluor Ace™ β-Galactosidase reporter assay kit (Bio-Rad cat no. 170-3150). This kit is a quantitative fluorescent assay that determines the level of expression of β-galactosidase using 4-methylumbelliferyl-galactopyranoside (MUG) as substrate. β-Galactosidase hydrolyses the fluorogenic substrate resulting in release of the fluorescent molecule 4-methylumbelliferone (4MU). Fluorescence of 4-methylumbelliferone is then measured on a fluorometer using an excitation wavelength of 360 nm and emission wavelength of 460 nm.
Compounds that inhibit fusion will give rise to a reduced signal and, following solubilisation in an appropriate solvent and dilution in culture medium, a dose-response curve for each compound can be used to calculate IC50 values.
Chain of HIV-1 fusion (gp160 induced cell-cell fusion; HeLa P4 cell line expressing CCR5 and CD4 / CHO-Tat10 cell line) (P51681 whole entry, the tested form may be a part): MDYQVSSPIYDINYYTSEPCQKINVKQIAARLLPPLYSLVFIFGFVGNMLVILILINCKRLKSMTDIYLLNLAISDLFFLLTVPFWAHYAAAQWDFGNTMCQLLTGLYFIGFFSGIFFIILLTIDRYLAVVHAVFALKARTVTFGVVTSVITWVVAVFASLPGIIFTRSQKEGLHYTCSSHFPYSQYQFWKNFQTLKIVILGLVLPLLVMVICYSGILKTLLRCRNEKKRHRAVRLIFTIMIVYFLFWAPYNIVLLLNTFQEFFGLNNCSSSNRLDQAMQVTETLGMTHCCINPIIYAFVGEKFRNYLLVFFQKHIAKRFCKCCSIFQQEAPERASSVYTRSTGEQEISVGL
For orientation: IC50 means the concentration that gives 50% inhibition. Turning to `Cc1nc2c(n1C1CCN(C(C)C[C@H](NC(=O)C3CC(F)(F)C3)c3ccccc3)CC1)CN(C(=O)C(C)C)CC2` (stereo partly drawn) [Example 25, 3,3-Difluoro-N-{(1S)-3-[4-(5-isobutyryl-2-methyl-4,5,6,7-tetrahydro-3H-imidazo[4,5-c]pyridin-3-yl)piperidin-1-yl]-1-phenylbutyl}cyclobutanecarboxamide], the IC50 was 0.4 nM. On the same count and under the same terms, under `Cc1nc2c(n1C1CCN(C(C)C[C@H](NC(=O)C3CCC3(F)F)c3ccccc3)CC1)CN(C(=O)C(C)C)CC2` (stereo partly shown) [Example 26] stands 38.5 nM. Same read-out and setting: under `Cc1nc2c(n1C1CCN(C(C)C[C@H](NC(=O)C3(C)CC3)c3ccccc3)CC1)CN(C(=O)C(C)C)CC2` (stereo partly shown) [Example 27] stands 115 nM; under `CC(=O)N1CCc2nc(C)n(C3CCN(C(C)C[C@H](NC(=O)C4(C)CC4)c4cccc(F)c4)CC3)c2C1` (stereo partly shown) [Example 48], 0.8 nM; under `CC(=O)N1CCc2nc(C)n(C3CCN(C(C)C[C@H](NC(=O)C4CCC4(F)F)c4cccc(F)c4)CC3)c2C1` (stereo partly shown) [Example 49], 0.4 nM. Turning to `CC(=O)N1CCc2nc(C)n(C3CCN(C(C)C[C@H](NC(=O)C4CCOCC4)c4cccc(F)c4)CC3)c2C1` (stereo partly shown) [Example 52], the IC50 was found to be 1 nM.

For the compound `CC(=O)N1CCc2nc(C)n(C3CCN(C(C)C[C@H](NC(=O)C4CCC4(F)F)c4ccccc4)CC3)c2C1` (stereo partly shown) [Example 53], the IC50 is 0.5 nM. Turning to `CC(=O)N1CCc2nc(C)n(C3CCN(C(C)C[C@H](NC(=O)C4CCC(F)(F)CC4)c4ccccc4)CC3)c2C1` (stereo partly shown) [Example 54], the IC50 came out at 0.4 nM. As for `CC(=O)N1CCc2nc(C)n(C3CCN(C(C)C[C@H](NC(=O)C4(C)CC4)c4ccccc4)CC3)c2C1` (stereo partly shown) [Example 55], the IC50 came out at 0.3 nM.

Regarding `CC(=O)N1CCc2nc(C)n(C3CCN(C(C)C[C@H](NC(=O)C4CCC4)c4cccc(F)c4)CC3)c2C1` (stereo partly shown) [Example 57], the IC50 came out at 0.2 nM. For `COC(=O)N[C@@H](CC(C)N1CCC(n2c(C)nc3c2CN(C(C)=O)CC3)CC1)c1cccc(F)c1` (stereo partly shown) [Example 59], the IC50 was determined as 13 nM. The same measure, in the same setting: under `CC(=O)N1CCc2nc(C)n(C3CCN(C(C)C[C@H](NC(=O)C4CC4)c4cccc(F)c4)CC3)c2C1` (stereo partly shown) [Example 60] stands 0.6 nM; under `CC(=O)N1CCc2nc(C)n(C3CCN(C(C)C[C@H](NC(=O)OC(C)C)c4cccc(F)c4)CC3)c2C1` (stereo partly shown) [Example 61], 1.6 nM; under `CC(=O)N1CCc2nc(C)n(C3CCN(C(C)C[C@H](NC(=O)OC(C)C)c4ccccc4)CC3)c2C1` (stereo partly shown) [Example 63], 1.8 nM.

Consider `CC(=O)N[C@@H](CC(C)N1CCC(n2c(C)nc3c2CN(C(=O)C(C)C)CC3)CC1)c1cccc(F)c1` (stereo partly shown) [Example 64], for which the IC50 was 2 nM. `CCC(=O)N[C@@H](CC(C)N1CCC(n2c(C)nc3c2CN(C(=O)C(C)C)CC3)CC1)c1cccc(F)c1` (stereo partly shown) [Example 65]: the IC50 was determined as 0.6 nM. Same read-out and setting: as for `CCOC(=O)N1CCc2nc(C)n(C3CCN(C(C)C[C@H](NC(C)=O)c4cccc(F)c4)CC3)c2C1` (stereo partly drawn) [Example 66, Ethyl 3-{1-[(3S)-3-(acetylamino)-3-(3-fluorophenyl)-1-methylpropyl]piperidin-4-yl}-2-methyl-3,4,6,7-tetrahydro-5H-imidazo[4,5-c]pyridine-5-carboxylate], the figure is 3.5 nM; as for `CCC(=O)N[C@@H](CC(C)N1CCC(n2c(C)nc3c2CN(C(=O)OC)CC3)CC1)c1cccc(F)c1` (stereo partly shown) [Example 67], 0.2 nM; as for `CCCC(=O)N[C@@H](CC(C)N1CCC(n2c(C)nc3c2CN(C(=O)OC)CC3)CC1)c1cccc(F)c1` (stereo partly drawn) [Example 69, Methyl 3-{1-[(3S)-3-(butyrylamino)-3-(3-fluorophenyl)-1-methylpropyl]piperidin-4-yl}-2-methyl-3,4,6,7-tetrahydro-5H-imidazo[4,5-c]pyridine-5-carboxylate], 0.2 nM. Turning to `COC(=O)N1CCc2c(nc(C)n2C2CCN(C(C)C[C@H](NC(=O)C3CC(F)(F)C3)c3cccc(F)c3)CC2)C1` (stereo partly drawn) [Example 80, Methyl 1-{1-[(3S)-3-{[(3,3-difluorocyclobutyl)carbonyl]amino}-3-(3-fluorophenyl)-1-methylpropyl]piperidin-4-yl}-2-methyl-1,4,6,7-tetrahydro-5H-imidazo[4,5-c]pyridine-5-carboxylate], the IC50 was 0.2 nM. Consider `CCC(=O)N[C@@H](CC(C)N1CCC(n2c(C)nc3c2CCN(C(=O)OC)C3)CC1)c1cccc(F)c1` (stereo partly shown) [Example 91], for which the IC50 is 102 nM. In the case of `CC(=O)N1CCc2c(nc(C)n2C2CCN(C(C)C[C@H](NC(=O)C3CC3)c3cccc(F)c3)CC2)C1` (stereo partly shown) [Example 103], the IC50 is 0.2 nM. `CC(C)c1noc(C2CCN(C(C)C[C@H](NC(=O)C3CCC3)c3ccccc3)CC2)n1` (stereo partly drawn) [Example 105, N-{(1S)-3-[4-(3-isoPropyl-1,2,4-oxadiazol-5-yl)piperidin-1-yl]-1-phenylbutyl}cyclobutanecarboxamide]: the IC50 turned out to be 94.6 nM. On to `CC(C)c1nccn1C1CCN(C(C)C[C@H](NC(=O)C2CCC(F)(F)CC2)c2ccccc2)CC1` (stereo partly drawn) [Example 111, 4,4-Difluoro-N-{(1S)-3-[4-(2-isopropyl-1H-imidazol-1-yl)piperidin-1-yl]-1-phenylbutyl}cyclohexanecarboxamide], for which the IC50 worked out at 0.2 nM. On the same count and under the same terms, under `Cc1nccn1C1CCN(C(C)C[C@H](NC(=O)C2CCC(F)(F)CC2)c2ccccc2)CC1` (stereo partly drawn) [Example 112, 4,4-Difluoro-N-{(1S)-3-[4-(2-methyl-1H-imidazol-1-yl)piperidin-1-yl]-1-phenylbutyl}cyclohexanecarboxamide] stands 1 nM.

The test is the same for the next values; noted with them: IC50 (nM), HeLa P4 / CHO-Tat10 cells.
In turn, `CCCC(=O)N[C@@H](CC(C)N1CCC(n2c(C)nc3c2CN(C(C)=O)CC3)CC1)c1ccccc1` (stereo partly drawn) [Example 56, N-{(1S)-3-[4-(5-acetyl-2-methyl-4,5,6,7-tetrahydro-3H-imidazo[4,5-c]pyridin-3-yl)piperidin-1-yl]-1-phenylbutyl}butanamide] returned an IC50 of 1.2 nM. The same measure, in the same setting: under `CC(=O)N1CCc2nc(C)n(C3CCN(C(C)C[C@H](NC(=O)C(C)C)c4cccc(F)c4)CC3)c2C1` (stereo partly drawn) [Example 58, N-[(1S)-3-[4-(5-acetyl-2-methyl-4,5,6,7-tetrahydro-3H-imidazo[4,5-c]pyridin-3-yl)piperidin-1-yl]-1-(3-fluorophenyl)butyl]-2-methylpropanamide] stands 0.5 nM; under `CCC(=O)N[C@@H](CC(C)N1CCC(n2c(C)nc3c2CN(C(C)=O)CC3)CC1)c1cccc(F)c1` (stereo partly drawn) [Example 62, N-[(1S)-3-[4-(5-acetyl-2-methyl-4,5,6,7-tetrahydro-3H-imidazo[4,5-c]pyridin-3-yl)piperidin-1-yl]-1-(3-fluorophenyl)butyl]propanamide], 1 nM; under `CCC(=O)N[C@@H](CC(C)N1CCC(n2c(C)nc3c2CCN(C(=O)OC)C3)CC1)c1ccccc1` (stereo partly drawn) [Example 92, methyl 2-methyl-1-{1-[(3S)-1-methyl-3-phenyl-3-(propionylamino)propyl]piperidin-4-yl}-1,4,6,7-tetrahydro-5H-imidazo[4,5-c]pyridine-5-carboxylate], 0.4 nM. For `CC(=O)N1CCc2c(nc(C)n2C2CCN(C(C)C[C@H](NC(=O)C(C)C)c3cccc(F)c3)CC2)C1` (stereo partly drawn) [Example 94, N-[(1S)-3-[4-(5-acetyl-2-methyl-4,5,6,7-tetrahydro-1H-imidazo[4,5-c]pyridin-1-yl)piperidin-1-yl]-1-(3-fluorophenyl)butyl]-2-methylpropanamide], the IC50 worked out at 0.2 nM.

With `CCC(=O)N[C@@H](CC(C)N1CCC(n2c(C)nc3c2CCN(C(C)=O)C3)CC1)c1cccc(F)c1` (stereo partly drawn) [Example 104, N-[(1S)-3-[4-(5-acetyl-2-methyl-4,5,6,7-tetrahydro-1H-imidazo[4,5-c]pyridin-1-yl)piperidin-1-yl]-1-(3-fluorophenyl)butyl]propanamide], it took 0.8 nM to reach half-maximal inhibition (IC50).

The values above are taken from patent US20090209578A1, “CHEMICAL COMPOUNDS” (PFIZER INC, priority 2005, published 2009).
